Data taken from patent US20260306460A1, “COMPOSITION FOR REMOVING AND INHIBITING SENESCENT CELLS, AND USES THEREOF” (LIFECEUTIX CO., LTD., priority 2023, published 2026).

Tests used:
senescent cells = test: Viability of senescent cells (CellTiter-Glo), Example 17, Table 13; details: for Survival (%): doxorubicin-induced senescent cells, 0 μM = 100
Description: Cells induced to undergo senescence by doxorubicin treatment were treated with test compound at designated concentrations and measured using the CellTiter-Glo Luminescent Cell Viability Assay (Promega).

[1] = test system: HMGN1 secreted from senescent A549 cells; test: HMGN1 secretion (ELISA) from senescent A549 cells, Example 18, Table 14; assay type: cell-based, human; details: doxorubicin-senescent A549, without test compound (DMSO) = 100%; 30 μM (LX-5211, LX-5433, LX-6530, LX-6800, LX-9105, LX-9118, LX-9131, LX-9136, LX-9302, LX-9321, LX-9565, LX-9602 at 90 μM; LX-9336 at 2.4 mM)
Description: On the other hand, in cancer cells treated with doxorubicin, where senescence was induced, the amount of HMGN1 measured under conditions where cells were not treated with the test compound was calculated as 100%, and the amount of HMGN1 was measured under conditions where the senescent cancer cells were treated with the test compound.

senescent A549 cells = test: Viability of senescent A549 cells (CellTiter-Glo), Example 18, Table 15; details: for Survival (%): doxorubicin-induced senescent A549 cells, 0 μM = 100%
Description: Senescence-induced cancer cells treated with doxorubicin were treated with the test compound at designated concentrations, and cell viability was measured using the CellTiter-Glo Luminescent Cell Viability Assay (Promega).

[2] = test system: HMGN1 secreted from senescent cells; test: HMGN1 secretion (ELISA) from doxorubicin-induced senescent cells, Example 17; assay type: cell-based, human; details: senescent untreated = 100%; 30 μM; 90 μM for LX-5211, 5433, 6530, 9105, 9118, 9321, 9602; 2.4 mM for LX-9336
[3] = test system: obesity-induced aged C57BL6J mice; test: Anxiety, depression, lethargy (open field test) in obesity-aged mice, Example 23-4, Table 44; assay type: in vivo, mouse; details: obesity-aged mice
Description: 15-week-old male C57BL6J mice (The Jackson Laboratory) were induced to obesity by a high-fat diet using the same method as in Example 9-1 WO2023-085787 A1. After acclimation to the experimental environment for one week, the mice were randomly assigned to experimental and control groups. […] LX-3002 was mixed in distilled water with 4% DMSO, 30% PEG300, and 5% Tween80 and administered orally at a concentration of 10 mg/kg daily for 21 days. LX-5701 was mixed in PBS and administered orally at a concentration of 360 mg/kg daily for 21 days. LX-6807 was mixed in saline and administered intraperitoneally at a concentration of 1 mg/kg daily for 21 days. The control group received only the solution in the same volume. After the end of drug administration, the methods described in each example below were performed.
It was determined that anxiety and depression caused by obesity are not causally related to increased body weight, but rather are caused by the accumulation of senescent cells. Accordingly, an activity assessment (open field test) was performed using the same method as in Example 7-7 of WO2023-085787 A1 to analyze lethargy caused by anxiety and depression caused by obesity in mice. The table below quantitatively represents activity, a criterion for assessing lethargy due to anxiety and depression, under conditions in which aging was induced by obesity and the test compound was not administered or was administered. The activity assessment after obesity-induced aging was calculated as 100% and compared with the activity assessment after test compound treatment.

naturally aged mice = test: Anti-aging evaluation in naturally aged mice, Example 31, Table 55; assay type: in vivo, mouse;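 note: Vehicle-dosed control mice received solution alone at matching volume, values compare test-compound-treated aged mice against that control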
[4] = test system: bleomycin-induced pulmonary fibrosis mice; test: Bleomycin-induced pulmonary fibrosis mice, Example 31, Table 56; assay type: in vivo, mouse; details: untreated = 100%
Method in brief: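 After treatment with test compound or vehicle alone, lungs of bleomycin-induced pulmonary fibrosis mice were harvested. Total RNA extracted and gene expression quantified by qRT-PCR.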

[5] = test system: naturally aged C57BL6J mice; test: Geriatric depression and anxiety in aged mice, Example 21-8; assay type: in vivo, mouse; details: aged mice
Text: The amount of senescent-associated secretory factor (SASP) in serum and tissues collected from mice of Examples 21-5 and 21-6 was reduced by treatment with LX-5701, LX-2101, or LX-2102. It was confirmed that removing senescent cells, which increase with aging in mice, and effectively reducing the amount of senescent-associated secretory factor (SASP) can improve symptoms of geriatric depression and anxiety.

[6] = test system: carbon tetrachloride-induced liver fibrosis mice; test: Carbon tetrachloride-induced liver fibrosis mice, Example 31, Table 57; assay type: in vivo, mouse; details: CCl4-induced liver fibrosis mice, untreated = 100%
Method in brief: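 Mice with induced hepatic fibrosis received either the test compound or, as controls, an equal volume of vehicle solution alone. Once dosing ended, liver tissue was harvested and total RNA was isolated. cDNA was synthesized from this RNA, and quantitative RT-PCR was run on it to measure hepatic mRNA levels of the fibrosis- and senescence-related genes.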

[7] = Homo sapiens, read-out: Survival (%)
[8] = Homo sapiens, A549, read-out: Survival (%)

CCCCCC/C=C\CCCCCCCCCC(=O)N[C@H]1[C@H](OC[C@H]2O[C@H](OP(=O)([O-])[O-])[C@H](NC(=O)CC(=O)CCCCCCCCCCC)[C@@H](OCCCCCCCCCC)[C@@H]2O)O[C@H](COC)[C@@H](OP(=O)([O-])[O-])[C@@H]1OCC[C@@H](CCCCCCC)OC.[Na+].[Na+].[Na+].[Na+] [LX-9136, Eritoran tetrasodium]
Survival (%) (senescent cells; 1.1 μM): 84.6%
Survival (%) (senescent cells; 10 μM): 71.1%
Survival (%) (senescent cells; 30 μM): 23.1%
Survival (%) (senescent cells; […]): 76.9%
HMGN1 [1]: 296%
Survival (%) (senescent A549 cells; 1.1 μM): 91.1%
Survival (%) (senescent A549 cells; 10 μM): 70.9%
Survival (%) (senescent A549 cells; 30 μM): 44.8%
Survival (%) (senescent A549 cells; 90 μM): 6.7%
Survival (%) (senescent A549 cells; […]): 83.4%
HMGN1 [2]: 263%

CCCCCCCCCCCCCCCCCCCC(=O)N[C@H]1CC[C@@]2(C)[C@@H](C1)C[C@@H](O)[C@@H]1[C@@H]2C[C@H](O)[C@]2(C)[C@@H]([C@H](C)CCC(=O)O)CC[C@@H]12 [LX-9343, Icomidocholic acid]
Survival (%) (senescent cells; 1.1 μM): 101.2%
Survival (%) (senescent cells; 10 μM): 74.2%
Survival (%) (senescent cells; 30 μM): 30.5%
Survival (%) (senescent cells; […]): 84.2%
HMGN1 [1]: 274%
Survival (%) (senescent A549 cells; 1.1 μM): 103.7%
Survival (%) (senescent A549 cells; 10 μM): 74.4%
Survival (%) (senescent A549 cells; 30 μM): 11.9%
Survival (%) (senescent A549 cells; […]): 104.0%
HMGN1 [2]: 305%

CCO[C@@H](Cc1ccc(OCCn2c(C)ccc2-c2ccc(SC)cc2)cc1)C(=O)[O-].CCO[C@@H](Cc1ccc(OCCn2c(C)ccc2-c2ccc(SC)cc2)cc1)C(=O)[O-].[Mg+2] [LX-9717, Saroglitazar Magnesium]
Survival (%) (senescent cells; 1.1 μM): 101.2%
Survival (%) (senescent cells; 10 μM): 73.5%
Survival (%) (senescent cells; 30 μM): 21.5%
Survival (%) (senescent cells; […]): 92.7%
HMGN1 [1]: 231%
Survival (%) (senescent A549 cells; 1.1 μM): 94.6%
Survival (%) (senescent A549 cells; 10 μM): 75.4%
Survival (%) (senescent A549 cells; 30 μM): 10.4%
Survival (%) (senescent A549 cells; […]): 87.6%
HMGN1 [2]: 226%

CN(C)c1cccc(-c2c3c(=O)n(-c4ccccc4Cl)[nH]c3cc(=O)n2C)c1 [LX-9744, Setanaxib]
viability at 1.1 µM (senescent cells; [7]): 101%
viability at 10 µM (senescent cells; [7]): 69.8%
viability at 30 µM (senescent cells; [7]): 22.3%
geriatric depression [3]: similarly improving geriatric depression
Femur Ctsk mRNA (naturally aged mice; femur, untreated = 100%): 57%
Heart Sur2a mRNA (naturally aged mice; heart, untreated = 1.0): 2.3 fold
Joint Col2a1 mRNA (naturally aged mice; joint, untreated = 1.0): 2.4 fold
Kidney Agtr1a mRNA (naturally aged mice; kidney, untreated = 100%): 65%
Liver IL6 mRNA (naturally aged mice; liver, untreated = 100%): 58%
Liver MMP3 mRNA (naturally aged mice; liver, untreated = 100%): 49%
Liver p16 mRNA (naturally aged mice; liver, untreated = 100%): 75%
Open Field Test Time in Center (naturally aged mice; open field test, untreated = 100%): 171%
Skin Col1a1 mRNA (naturally aged mice; skin, untreated = 1.0): 2.3 Fold
Skin SDF1 mRNA (naturally aged mice; skin, untreated = 1.0): 1.7 fold
Muscle Mass (naturally aged mice; untreated 0.64 g): 0.69 g
Fat Mass (naturally aged mice; untreated 0.82 g): 0.84 g
Cataract incidence (naturally aged mice; untreated 83%): 78%
viability at 1.1 µM (senescent A549 cells; [8]): 91.8%
viability at 10 µM (senescent A549 cells; [8]): 73.5%
viability at 30 µM (senescent A549 cells; [8]): 25.8%
Lung p16 mRNA ([4]; lung): 73 (±3.1) %
Col1a1 mRNA [4]: 64 (±3.3) %
amount of SASP, p16, SA-β-gal, lipofuscin [5]: reduced
symptoms of geriatric depression and anxiety [5]: improved
Liver p16 mRNA ([6]; liver): 71 (±3.1) %
Col1a1 mRNA [6]: 48 (±3.5) %

Batiraxcept [LX-6982]
Survival (%) (senescent cells; 1.1 μM): 95.1%
Survival (%) (senescent cells; 10 μM): 74.6%
Survival (%) (senescent cells; 30 μM): 10.5%
Survival (%) (senescent cells; […]): 86.8%
HMGN1 [1]: 306%
Survival (%) (senescent A549 cells; 1.1 μM): 90.9%
Survival (%) (senescent A549 cells; 10 μM): 77.8%
Survival (%) (senescent A549 cells; 30 μM): 6.9%
Survival (%) (senescent A549 cells; […]): 88.9%
HMGN1 [2]: 234%

Mirvetuximab [LX-7622]
Survival (%) (senescent cells; 1.1 μM): 99.1%
Survival (%) (senescent cells; 10 μM): 75.7%
Survival (%) (senescent cells; 30 μM): 17.7%
Survival (%) (senescent cells; […]): 94.1%
Survival (%) (senescent A549 cells; 1.1 μM): 88.6%
Survival (%) (senescent A549 cells; 10 μM): 71.1%
Survival (%) (senescent A549 cells; 30 μM): 4.3%
Survival (%) (senescent A549 cells; […]): 81.0%
HMGN1 [2]: 293%
